pIC50: −log10 of the molar value.
Assays:
COX-2 [1] = experiment: COX-2 expression in colon of AOM-treated mice (western blot); format: in vivo, ICR mice; settings: western blot of colon mucosa
Description: (§1) Male ICR mice at 5 weeks of age were purchased from the BioLASCO Experimental Animal Center (Taiwan Co., Ltd). After 1 week of acclimation, animals were randomly distributed into control and experimental groups. All animals were housed in a controlled atmosphere (25±1° C. at 50% relative humidity) and with a 12-hour light/12-hour dark cycle. Animals had free access to food and water at all times. Food cups were replenished with fresh diet every day. The experimental protocol is illustrated in FIG. 6. Mice were divided into 6 groups. One group (negative control) was fed standard diet; one group (positive control) was fed standard diet but injected with azozymethane (AOM) twice a week for 2 weeks; the remaining 4 groups had AOM injection and dietary supplementation of different levels of EGCG esters (1a and EGCG-DHA ester mixture containing predominantly 1c and its homologues). 9(b): Identification of ACF The formalin-fixed colonic tissues were cut into proximal (1-2 cm from the cecum), middle (3-4 cm) and distal (1-2 cm from anus) segments and stained in 0.2% methylene blue solution for 10 min. Methylene blue-stained ACF in each focus were counted under a microscope (×40). The ACF location (distance from anus) and size (number of aberrant crypts) were recorded. […] The densities of the bands were quantitated with a computer densitometer (AlphaImager™ 2200 System). […]

HCV NS3/4A protease = HCV NS3/4A protease (Hepatitis C virus genotype 1a, UniProt P27958); experiment: Inhibition against HCV protease; format: biochemical
Description: An aliquot (2 μl) of test compounds dissolved in DMSO was added to each well of a 384-well black Assay plate, followed by addition of 8 μl of HCV NS3/4A protease solution (0.5 μg/ml). The reaction was initiated by adding 10 μl of freshly diluted substrate (100× dilution of a DMSO stocking solution). The mixture was incubated at room temperature for 30 min, and the fluorescence intensity was measured at 485 nm for excitation and 535 nm for emission by a TECAN GENios plate reader. […] All fluorescence values were corrected with a substrate blank. Samples were assayed at different concentrations to plot a concentration VS. inhibition percentage curve, and IC50 values were obtained from the curve for each sample. A known HCV protease inhibitor, embelin, was used as a reference. Discussion

[2] = tested on: colon ACF and colon tumors in AOM treated mice; experiment: AOM-treated mice, colon aberrant crypt foci and tumors; format: in vivo, ICR mice
Description: as §1

iNOS [3] = experiment: iNOS expression in colon of AOM-treated mice (western blot); format: in vivo, ICR mice; settings: western blot of colon mucosa
Description: as §1

iNOS [4] = experiment: iNOS protein expression in LPS-stimulated RAW 264.7 macrophages (western blot); format: cell-based, murine; settings: LPS 100 ng/ml, RAW 264.7, western blot; 20 and 40 μM for 1a-1c
Description: RAW 264.7 cells were cultured in Rosewell Park Memorial Institute (RPMI) 1640 media (without phenol red) supplemented with 10% endotoxin-free, heat-inactivated fetal calf serum, 100 units/ml penicillin, and 100 μg/ml streptomycin. When the cells reached a density of 2-3×10^6 cells/ml, they were activated by incubation in a medium containing E. coli lipopolysaccharide (LPS) (100 ng/ml). Various concentrations of compounds of the disclosure in dimethyl sulphoxide (DMSO) were added together with LPS. Cells were treated with 0.05% DMSO as the vehicle control. The stimulated murine macrophage cell line RAW 264.7 cells were washed with PBS and lysed in an ice-cold RIPA buffer (Tris-HCl, pH 7.2, 25 mM; 0.1% SDS; 1% Triton X-100; 1% sodium deoxycholate; 0.15 M NaCl; 1 mM EDTA) containing 1 mM phenylmethyl sulphonyl fluoride (PMSF), 10 μg/mL aprotinin, 1 mM sodium ortho-vanadate, and 5 μg/mL leupeptin. Protein concentrations were determined using the BCA method (Pierce, Rockford, Ill.). The samples (50 μg of protein) were mixed with 5-fold of sample buffer containing 0.3 M Tris-HCl (pH 6.8), 25% 2-mercaptoethanol, 12% sodium dodecyl sulphate (SDS), 25 mM EDTA, 20% glycerol, and 0.1% bromophenol blue. The mixtures were boiled at 100° C. for 5 min, prerun on a stacking gel, and then resolved by 12% SDS-polyacrylamide minigels at a constant current of 20 mA. For western blot, proteins on the gel were electro-transferred onto a […] immobile polyvinylidene fluoride (PVDF) membrane with a transfer buffer composed of 25 mM Tris-HCl (pH 8.9), 192 mM glycine, and 20% methanol, as described by Pan et al. (2000). […] The densities of the bands were quantitated using a densitometer (AlphaImager 2200 System). […] (7b) Inhibition Against LPS-Induced NO Production in RAW 264.7 Macrophage The LPS-induced NO production by the macrophages was determined as nitrite concentration in the culture medium according to the Griess reaction. […] The absorbance of the mixture at 550 nm was measured with an ELISA plate reader (Dynatech MR-7000; Dynatech Laboratories, Chantilly, Va., USA). […]

PGE2 production = PGE2 production in LPS-stimulated RAW264.7 macrophages (EIA); format: cell-based, mouse; settings: FIG. 10
Text: The level of PGE2 released into the culture medium was quantified by a specific enzyme immunoassay (EIA) method using a ACE™ EIA kit according to the manufacturer's instructions. FIG. 10 illustrates that the production of the inflammatory mediator PGE2 was inhibited by 10a (EGCG-DPA). The EGCG ester 10a has improved lipophilicity and cellular absorption, and therefore provides synergistic effects with respect to the DPA (a competitive inhibitor against the omega-6 fatty acid arachidonic acid) for the COX enzymes) and EGCG (COX-2 inhibitor) moieties.

iNOS mRNA = iNOS mRNA expression in LPS-stimulated RAW264.7 macrophages (RT-PCR); format: cell-based, mouse; settings: FIG. 12
Description: (§2) Total RNA was isolated from mouse macrophage RAW264.7 cell using Trizol Reagent according to the manufacturer's instructions. Changes in the steady-state concentration of mRNA in iNOS, COX-2, and β-actin (control) were assessed by RT-PCR. Total RNA (2 μg) was converted to cDNA in a series of standard 10 μl reverse transcription reactions. DNA amplification was carried out in “Ready To Go” PCR Beads. The initial conditions were 95° C. for 5 min. Amplification 30 cycles of iNOS were 95° C. for 40 s, 65° C. for 60 s, and 72° C. for 2 min, followed by a 10 min extension at 72° C. The thermal cycle conditions of COX-2 were initiated at 95° C. for […], then 30 cycles of amplification (94° C. for 45 s, 55° C. for 60 s, and 72° C. for 2 min) were performed followed by 10 min extension at 72° C. The PCR products were separated by electrophoresis on a 1% agarose gel and visualized by ethidium bromide staining. Amplification of β-actin served as a control for sample loading and integrity. PCR was performed on the cDNA using the following sense and antisense primer: iNOS, forward primer 5′-[…]-[…]-3′ (2944-2968), reverse primer 5′-[…]-[…]-3′ (3419-3443); COX-2, forward primer 5′-[…]-[…]-3′ (1094-1117), reverse primer 5′-[…]-3′ (1931-1954); β-actin, forward primer 5′-[…]-3′, reverse primer 5′-[…]-3′. Confirmation of the correct amplicons was obtained by direct DNA sequencing of the PCR products.

[5] = tested on: LPS-induced NO production; experiment: LPS-induced NO production in RAW 264.7 macrophage (Griess reaction); format: cell-based, murine; settings: LPS-stimulated RAW264.7 macrophages
Description: RAW 264.7 cells were cultured in Rosewell Park Memorial Institute (RPMI) 1640 media (without phenol red) supplemented with 10% endotoxin-free, heat-inactivated fetal calf serum, 100 units/ml penicillin, and 100 μg/ml streptomycin. When the cells reached a density of 2-3×10^6 cells/ml, they were activated by incubation in a medium containing E. coli lipopolysaccharide (LPS) (100 ng/ml). Various concentrations of compounds of the disclosure in dimethyl sulphoxide (DMSO) were added together with LPS. Cells were treated with 0.05% DMSO as the vehicle control. The stimulated murine macrophage cell line RAW 264.7 cells were washed with PBS and lysed in an ice-cold RIPA buffer (Tris-HCl, pH 7.2, 25 mM; 0.1% SDS; 1% Triton X-100; 1% sodium deoxycholate; 0.15 M NaCl; 1 mM EDTA) containing 1 mM phenylmethyl sulphonyl fluoride (PMSF), 10 μg/mL aprotinin, 1 mM sodium ortho-vanadate, and 5 μg/mL leupeptin. Protein concentrations were determined using the BCA method (Pierce, Rockford, Ill.). The samples (50 μg of protein) were mixed with 5-fold of sample buffer containing 0.3 M Tris-HCl (pH 6.8), 25% 2-mercaptoethanol, 12% sodium dodecyl sulphate (SDS), 25 mM EDTA, 20% glycerol, and 0.1% bromophenol blue. The mixtures were boiled at 100° C. for 5 min, prerun on a stacking gel, and then resolved by 12% SDS-polyacrylamide minigels at a constant current of 20 mA. For western blot, proteins on the gel were electro-transferred onto a […] immobile polyvinylidene fluoride (PVDF) membrane with a transfer buffer composed of 25 mM Tris-HCl (pH 8.9), 192 mM glycine, and 20% methanol, as described by Pan et al. (2000). Membrane blocking was then carried out at room temperature for 1 h in blocking solution (20 mM Tris-HCl pH 7.4, 125 mM NaCl, 0.2% Tween 20, 1% bovine serum albumin, and 0.1% sodium azide). The membrane was incubated with the primary antibody of iNOS and COX-2 at 4° C. overnight. The membranes were subsequently probed with selected IgG antibody conjugated to horseradish peroxidase (Transduction Laboratories, Lexington, Ky.) and visualized using enhanced chemiluminescence (ECL, Amersham). The densities of the bands were quantitated using a densitometer (AlphaImager 2200 System). All the membranes were stripped and reprobed for β-actin (Sigma Chemical Co., St. Louis, Mo.) as loading control. […] The inhibition of iNOS induction by compounds of the disclosure may be due to down regulation of iNOS gene expression. […] (7b) Inhibition Against LPS-Induced NO Production in RAW 264.7 Macrophage The LPS-induced NO production by the macrophages was determined as nitrite concentration in the culture medium according to the Griess reaction. […] The absorbance of the mixture at 550 nm was measured with an ELISA plate reader (Dynatech MR-7000; Dynatech Laboratories, Chantilly, Va., USA). […]

COX-2 mRNA = COX-2 mRNA expression in LPS-stimulated RAW264.7 macrophages (RT-PCR); format: cell-based, mouse; settings: FIG. 12
Description: as §2

COX-2 [6] = experiment: COX-2 protein expression in LPS-stimulated RAW 264.7 macrophages (western blot); format: cell-based, murine; settings: LPS 100 ng/ml, RAW 264.7, western blot
Description: RAW 264.7 cells were cultured in Rosewell Park Memorial Institute (RPMI) 1640 media (without phenol red) supplemented with 10% endotoxin-free, heat-inactivated fetal calf serum, 100 units/ml penicillin, and 100 μg/ml streptomycin. When the cells reached a density of 2-3×10^6 cells/ml, they were activated by incubation in a medium containing E. coli lipopolysaccharide (LPS) (100 ng/ml). Various concentrations of compounds of the disclosure in dimethyl sulphoxide (DMSO) were added together with LPS. Cells were treated with 0.05% DMSO as the vehicle control. The stimulated murine macrophage cell line RAW 264.7 cells were washed with PBS and lysed in an ice-cold RIPA buffer (Tris-HCl, pH 7.2, 25 mM; 0.1% SDS; 1% Triton X-100; 1% sodium deoxycholate; 0.15 M NaCl; 1 mM EDTA) containing 1 mM phenylmethyl sulphonyl fluoride (PMSF), 10 μg/mL aprotinin, 1 mM sodium ortho-vanadate, and 5 μg/mL leupeptin. Protein concentrations were determined using the BCA method (Pierce, Rockford, Ill.). The samples (50 μg of protein) were mixed with 5-fold of sample buffer containing 0.3 M Tris-HCl (pH 6.8), 25% 2-mercaptoethanol, 12% sodium dodecyl sulphate (SDS), 25 mM EDTA, 20% glycerol, and 0.1% bromophenol blue. The mixtures were boiled at 100° C. for 5 min, prerun on a stacking gel, and then resolved by 12% SDS-polyacrylamide minigels at a constant current of 20 mA. For western blot, proteins on the gel were electro-transferred onto a […] immobile polyvinylidene fluoride (PVDF) membrane with a transfer buffer composed of 25 mM Tris-HCl (pH 8.9), 192 mM glycine, and 20% methanol, as described by Pan et al. (2000). Membrane blocking was then carried out at room temperature for 1 h in blocking solution (20 mM Tris-HCl pH 7.4, 125 mM NaCl, 0.2% Tween 20, 1% bovine serum albumin, and 0.1% sodium azide). The membrane was incubated with the primary antibody of iNOS and COX-2 at 4° C. overnight. The membranes were subsequently probed with selected IgG antibody conjugated to horseradish peroxidase (Transduction Laboratories, Lexington, Ky.) and visualized using enhanced chemiluminescence (ECL, Amersham). The densities of the bands were quantitated using a densitometer (AlphaImager 2200 System). All the membranes were stripped and reprobed for β-actin (Sigma Chemical Co., St. Louis, Mo.) as loading control. […] The inhibition of iNOS induction by compounds of the disclosure may be due to down regulation of iNOS gene expression. EGCG and compounds of the disclosure with antioxidant activities may inhibit the ROS/RNS-mediated activation of NF-κB, the transcription factor that promotes gene expression of iNOS. […] The difference in their ability to inhibit production of iNOS and COX-2 may be due to other mechanisms involved in addition to blocking the NF-κB signalling pathway. EGCG and its derivatives may also suppress the cytokine production by breaking down the mRNA and protein of iNOS and COX-2 to varied degrees. (7b) Inhibition Against LPS-Induced NO Production in RAW 264.7 Macrophage The LPS-induced NO production by the macrophages was determined as nitrite concentration in the culture medium according to the Griess reaction. The culture medium of the control and treated cells was collected and centrifuged. An aliquot (100 μL) of the supernatant was mixed with an equal volume of Griess reagent. The absorbance of the mixture at 550 nm was measured with an ELISA plate reader (Dynatech MR-7000; Dynatech Laboratories, Chantilly, Va., USA). […]

Sequence of HCV NS3/4A protease (P27958 1027-1657): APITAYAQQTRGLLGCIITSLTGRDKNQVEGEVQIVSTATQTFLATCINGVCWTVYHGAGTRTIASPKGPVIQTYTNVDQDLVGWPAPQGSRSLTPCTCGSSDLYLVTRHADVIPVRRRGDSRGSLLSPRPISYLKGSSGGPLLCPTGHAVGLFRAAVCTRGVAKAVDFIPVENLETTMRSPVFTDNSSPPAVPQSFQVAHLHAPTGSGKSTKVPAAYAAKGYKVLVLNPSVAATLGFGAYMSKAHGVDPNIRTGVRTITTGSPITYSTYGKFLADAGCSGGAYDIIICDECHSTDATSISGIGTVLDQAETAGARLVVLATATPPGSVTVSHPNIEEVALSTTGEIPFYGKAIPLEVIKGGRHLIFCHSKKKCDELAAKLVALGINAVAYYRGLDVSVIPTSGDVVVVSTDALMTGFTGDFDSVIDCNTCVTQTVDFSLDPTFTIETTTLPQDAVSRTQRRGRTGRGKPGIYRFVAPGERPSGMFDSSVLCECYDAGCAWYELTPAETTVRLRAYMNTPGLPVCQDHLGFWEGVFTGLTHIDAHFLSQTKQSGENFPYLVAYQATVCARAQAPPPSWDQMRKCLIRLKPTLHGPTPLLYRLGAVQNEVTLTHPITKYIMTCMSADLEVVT
Sequence of HCV NS3/4A protease (P27958 1658-1711): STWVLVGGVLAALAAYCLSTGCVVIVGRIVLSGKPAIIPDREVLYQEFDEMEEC

## CCCC(=O)Oc1cc(OC(=O)CCC)c2c(c1)OC(c1cc(OC(=O)CCC)c(OC(=O)CCC)c(OC(=O)CCC)c1)C(OC(=O)c1cc(OC(=O)CCC)c(OC(=O)CCC)c(OC(=O)CCC)c1)C2 (stereo not drawn) [Compound 1g, EGCG-octabutyrate]
COX-2 [1]
  COX-2 expression in mice colon: dose-dependent inhibitory effect
HCV NS3/4A protease; HCV NS3/4A protease 0.5 μg/ml, 30 min, room temperature
  pIC50: 6.01
HCV NS3/4A protease; fold stronger than embelin
  HCV protease inhibitory activity relative to embelin: 10 fold
[2]; AOM treated mice, FIG. 7
  Colon tumors: inhibited to a lesser level
[2]; AOM-injected male ICR mice, dietary supplementation
  Tumorogenesis in terms of number and size of ACF: significantly suppressed tumorogenesis
iNOS [3]
  iNOS expression in mice colon: dose-dependent inhibitory effect

## EGCG-docosapentaenoate [Compound 10a]
iNOS [4]
  Inhibition of iNOS protein expression: inhibited
PGE2 production
  Inhibition of PGE2 production: inhibited
iNOS mRNA
  Inhibition of iNOS mRNA expression: inhibited
[5]
  Inhibition of NO production (in words): inhibited by 10a (EGCG-DPA) more effectively than DPA
COX-2 mRNA
  Inhibition of COX-2 mRNA expression: inhibited
COX-2 [6]
  Inhibition of COX-2 protein expression: inhibited
